According to ChEMBL document CHEMBL1201862, “PubChem BioAssay data set” (2004):
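Cultured in 96-well plates, cells were exposed to test compound for 48 hours across five concentrations. GI50: concentration for 50% inhibition of growth.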 Activity calls are given as the source filed them. Rule as the data show it: active = GI50 up to about 1.1 µM and inactive = higher.

Experiments:
Experiment in all cases: NCI anticancer screen, dose series, 48 h
ACHN = test system: ACHN
DMS-114 = test system: DMS-114
HCT-15 = test system: HCT-15
HOP-92 = test system: HOP-92
NCI-H23 = test system: NCI-H23
NCI-H460 = test system: NCI-H460
OVCAR-8 = test system: OVCAR-8
SF-268 = test system: SF-268
SF-539 = test system: SF-539
SK-OV-3 = test system: SK-OV-3
SW-620 = test system: SW-620
TK-10 = test system: TK-10
U-251 = test system: U-251
KM12 = test system: KM12
MCF7 = test system: MCF7
NCI/ADR-RES = test system: NCI/ADR-RES
PC-3 = test system: PC-3
RXF 393 = test system: RXF 393
DU-145 = test system: DU-145
T47D = test system: T47D

## C#CCC1(C(=O)OCC)C(=O)c2ccccc2N(C)C1=O (stereo unspecified)
ACHN
  GI50: 93.5 µM (inactive)
DMS-114
  GI50: > 100 µM (inactive)
HCT-15
  GI50: > 100 µM
HOP-92
  GI50: 36.6 µM (inactive)
NCI-H23
  GI50: 14.7 µM (inactive)
NCI-H460
  GI50: > 100 µM (inactive)
OVCAR-8
  GI50: > 100 µM (inactive)
SF-268
  GI50: 58.7 µM (inactive)
SF-539
  GI50: > 100 µM (inactive)
SK-OV-3
  GI50: > 100 µM (inactive)
SW-620
  GI50: > 100 µM (inactive)
TK-10
  GI50: > 100 µM (inactive)
U-251
  GI50: > 100 µM (inactive)

## COc1ccc(/C=C/c2cc(OC)c(OCc3ccccc3)c(OC)c2)cc1
ACHN
  GI50: > 100 µM (inactive)
DMS-114
  GI50: 68.4 µM (inactive)
HOP-92
  GI50: 89.7 µM (inactive)
KM12
  GI50: > 100 µM (inactive)
NCI-H23
  GI50: 64 µM (inactive)
NCI-H460
  GI50: > 100 µM (inactive)
OVCAR-8
  GI50: > 100 µM (inactive)
SF-268
  GI50: > 100 µM (inactive)
SF-539
  GI50: > 100 µM (inactive)
SK-OV-3
  GI50: > 100 µM (inactive)
SW-620
  GI50: > 100 µM (inactive)
U-251
  GI50: > 100 µM (inactive)

## COc1ccc2[nH]c3c(C)c4cc[n+](C)cc4c(C)c3c2c1
ACHN
  GI50: 7.24 µM (inactive)
DMS-114
  GI50: 0.219 µM (active)
HOP-92
  GI50: 2.27 µM (inactive)
KM12
  GI50: 0.964 µM (active)
MCF7
  GI50: 2.16 µM (inactive)
NCI-H23
  GI50: 0.521 µM (active)
NCI-H460
  GI50: 1.26 µM (inactive)
NCI/ADR-RES
  GI50: 19.3 µM (inactive)
OVCAR-8
  GI50: 0.169 µM (active)
PC-3
  GI50: 4.55 µM (inactive)
RXF 393
  GI50: 0.798 µM (active)
SF-268
  GI50: 0.148 µM (active)
SF-539
  GI50: 0.24 µM (active)
SK-OV-3
  GI50: 7.74 µM (inactive)
SW-620
  GI50: 0.587 µM (active)
U-251
  GI50: 0.105 µM (active)

## Nc1nc(SCc2ccccc2Cl)c2[nH]cnc2n1
ACHN
  GI50: 31.5 µM (inactive)
DMS-114
  GI50: 40.8 µM (inactive)
HCT-15
  GI50: 51.5 µM
KM12
  GI50: 74.3 µM (inactive)
NCI-H23
  GI50: 66.1 µM (inactive)
NCI-H460
  GI50: 48.9 µM (inactive)
OVCAR-8
  GI50: 55.7 µM (inactive)
RXF 393
  GI50: 23.1 µM (inactive)
SF-268
  GI50: 58.7 µM (inactive)
SF-539
  GI50: 74.8 µM (inactive)
SK-OV-3
  GI50: 24.7 µM (inactive)
SW-620
  GI50: > 100 µM (inactive)
TK-10
  GI50: 18.8 µM (inactive)
U-251
  GI50: 65.3 µM (inactive)

## COC(=O)c1ccccc1NC(=O)C(=O)CC(=O)CC(c1ccccc1)c1c(O)c2ccccc2oc1=O (stereo unspecified)
ACHN
  GI50: > 100 µM (inactive)
DMS-114
  GI50: > 100 µM (inactive)
KM12
  GI50: > 100 µM (inactive)
NCI-H23
  GI50: > 100 µM (inactive)
NCI-H460
  GI50: > 100 µM (inactive)
OVCAR-8
  GI50: > 100 µM (inactive)
RXF 393
  GI50: > 100 µM (inactive)
SF-268
  GI50: > 100 µM (inactive)
SF-539
  GI50: > 100 µM (inactive)
SK-OV-3
  GI50: > 100 µM (inactive)
SW-620
  GI50: > 100 µM (inactive)
TK-10
  GI50: > 100 µM (inactive)

## CCOC(=O)C(=O)NCCCN1CCOCC1
ACHN
  GI50: > 100 µM (inactive)
DMS-114
  GI50: > 100 µM (inactive)
HCT-15
  GI50: > 100 µM
HOP-92
  GI50: > 100 µM (inactive)
KM12
  GI50: > 100 µM (inactive)
NCI-H23
  GI50: > 100 µM (inactive)
NCI-H460
  GI50: > 100 µM (inactive)
OVCAR-8
  GI50: > 100 µM (inactive)
RXF 393
  GI50: > 100 µM (inactive)
SF-268
  GI50: > 100 µM (inactive)
SF-539
  GI50: > 100 µM (inactive)
SK-OV-3
  GI50: > 100 µM (inactive)
SW-620
  GI50: > 100 µM (inactive)
TK-10
  GI50: > 100 µM (inactive)
U-251
  GI50: > 100 µM (inactive)

## O=[N+]([O-])c1ccc(COc2cccc3cccnc23)cc1
ACHN
  GI50: 19.6 µM (inactive)
DMS-114
  GI50: 2.19 µM (inactive)
HCT-15
  GI50: 7.1 µM
HOP-92
  GI50: 31 µM (inactive)
KM12
  GI50: 23.8 µM (inactive)
NCI-H23
  GI50: 20 µM (inactive)
NCI-H460
  GI50: 1.23 µM (inactive)
OVCAR-8
  GI50: 20.5 µM (inactive)
RXF 393
  GI50: 43.5 µM (inactive)
SF-268
  GI50: 19.9 µM (inactive)
SF-539
  GI50: 29.6 µM (inactive)
SK-OV-3
  GI50: 32.3 µM (inactive)
TK-10
  GI50: 15.8 µM (inactive)
U-251
  GI50: 10 µM (inactive)

## C=C=CC(NC(=O)c1ccccc1)(C(=O)O)C(F)(F)F (stereo unspecified)
ACHN
  GI50: > 100 µM (inactive)
DMS-114
  GI50: > 100 µM (inactive)
HCT-15
  GI50: > 100 µM
HOP-92
  GI50: > 100 µM (inactive)
KM12
  GI50: > 100 µM (inactive)
NCI-H23
  GI50: > 100 µM (inactive)
NCI-H460
  GI50: > 100 µM (inactive)
OVCAR-8
  GI50: > 100 µM (inactive)
RXF 393
  GI50: > 100 µM (inactive)
SF-268
  GI50: > 100 µM (inactive)
SF-539
  GI50: > 100 µM (inactive)
SW-620
  GI50: > 100 µM (inactive)
TK-10
  GI50: > 100 µM (inactive)
U-251
  GI50: > 100 µM (inactive)

## C=CCc1cc(OC)c2c(c1)C(OC(C)=O)CC(c1ccc(OC)c(OC)c1)O2 (stereo unspecified)
ACHN
  GI50: > 100 µM (inactive)
DMS-114
  GI50: > 100 µM (inactive)
HCT-15
  GI50: > 100 µM
HOP-92
  GI50: 23.4 µM (inactive)
KM12
  GI50: > 100 µM (inactive)
NCI-H23
  GI50: 46.7 µM (inactive)
NCI-H460
  GI50: > 100 µM (inactive)
SF-268
  GI50: > 100 µM (inactive)
SF-539
  GI50: 47.4 µM (inactive)
SK-OV-3
  GI50: > 100 µM (inactive)
SW-620
  GI50: > 100 µM (inactive)
TK-10
  GI50: 63.1 µM (inactive)
U-251
  GI50: 60.5 µM (inactive)

## CCC(C)CN1C(=O)NC(Cc2ccccc2)C1=O (stereo unspecified)
ACHN
  GI50: > 100 µM (inactive)
DMS-114
  GI50: > 100 µM (inactive)
HOP-92
  GI50: 19.4 µM (inactive)
KM12
  GI50: > 100 µM (inactive)
NCI-H23
  GI50: > 100 µM (inactive)
NCI-H460
  GI50: > 100 µM (inactive)
OVCAR-8
  GI50: > 100 µM (inactive)
RXF 393
  GI50: > 100 µM (inactive)
SF-268
  GI50: > 100 µM (inactive)
SF-539
  GI50: > 100 µM (inactive)
SW-620
  GI50: > 100 µM (inactive)
TK-10
  GI50: > 100 µM (inactive)
U-251
  GI50: > 100 µM (inactive)

## C=C(N=[N+]=[N-])c1cn(C2CC(O)C(CO)O2)c(=O)[nH]c1=O (stereo unspecified)
ACHN
  GI50: > 100 µM (inactive)
DMS-114
  GI50: > 100 µM (inactive)
HCT-15
  GI50: > 100 µM
HOP-92
  GI50: > 100 µM (inactive)
KM12
  GI50: > 100 µM (inactive)
NCI-H23
  GI50: > 100 µM (inactive)
NCI-H460
  GI50: > 100 µM (inactive)
OVCAR-8
  GI50: > 100 µM (inactive)
RXF 393
  GI50: > 100 µM (inactive)
SF-539
  GI50: > 100 µM (inactive)
SK-OV-3
  GI50: > 100 µM (inactive)
SW-620
  GI50: > 100 µM (inactive)
TK-10
  GI50: > 100 µM (inactive)
U-251
  GI50: > 100 µM (inactive)

## O=C(O)[C@@H](NS(=O)(=O)c1ccc(F)cc1)c1ccccc1
ACHN
  GI50: > 100 µM (inactive)
DMS-114
  GI50: > 100 µM (inactive)
HCT-15
  GI50: > 100 µM
NCI-H23
  GI50: > 100 µM (inactive)
NCI-H460
  GI50: > 100 µM (inactive)
OVCAR-8
  GI50: > 100 µM (inactive)
RXF 393
  GI50: > 100 µM (inactive)
SF-268
  GI50: > 100 µM (inactive)
SF-539
  GI50: > 100 µM (inactive)
SK-OV-3
  GI50: > 100 µM (inactive)
SW-620
  GI50: > 100 µM (inactive)
TK-10
  GI50: > 100 µM (inactive)
U-251
  GI50: > 100 µM (inactive)

## Cc1c(/C=N/N(C)C)oc2c1cc(O)c1ncccc12
ACHN
  GI50: 7.89 µM (inactive)
DMS-114
  GI50: 2.87 µM (inactive)
HCT-15
  GI50: 2.31 µM
HOP-92
  GI50: 10.7 µM (inactive)
KM12
  GI50: 18.2 µM (inactive)
NCI-H23
  GI50: 3.61 µM (inactive)
NCI-H460
  GI50: 4.5 µM (inactive)
OVCAR-8
  GI50: 4.07 µM (inactive)
RXF 393
  GI50: 5.97 µM (inactive)
SF-268
  GI50: 4.01 µM (inactive)
SK-OV-3
  GI50: 6.87 µM (inactive)
SW-620
  GI50: 4.61 µM (inactive)
TK-10
  GI50: 28.8 µM (inactive)
U-251
  GI50: 13.1 µM (inactive)

## CC(C)=CCC1=C(OCC(=O)O)C(=O)c2ccccc2C1=O
ACHN
  GI50: 39.4 µM (inactive)
DU-145
  GI50: 33.5 µM (inactive)
HCT-15
  GI50: 39.4 µM
HOP-92
  GI50: 47.4 µM (inactive)
KM12
  GI50: 25.2 µM (inactive)
MCF7
  GI50: 25.1 µM (inactive)
NCI-H23
  GI50: 33 µM (inactive)
NCI-H460
  GI50: 34.5 µM (inactive)
NCI/ADR-RES
  GI50: 32.1 µM (inactive)
OVCAR-8
  GI50: 38.5 µM (inactive)
PC-3
  GI50: 31.3 µM (inactive)
RXF 393
  GI50: 31.9 µM (inactive)
SF-268
  GI50: 22.3 µM (inactive)
SF-539
  GI50: 27.2 µM (inactive)
SK-OV-3
  GI50: 67.9 µM (inactive)
SW-620
  GI50: 23 µM (inactive)
T47D
  GI50: 31.5 µM (inactive)
TK-10
  GI50: > 100 µM (inactive)
U-251
  GI50: 30.3 µM (inactive)
